Experimental data published in US7879795B2, “Enhancement of tigecycline potency using efflux pump inhibitors” (Mpex Pharmaceuticals, Inc., priority 2004, dated 2011).

How the values were obtained:
[1] = Tissue levels in rat six-hour after 8.4 mg/kg IV bolus; format: in vivo; conditions: rat kidney, liver and lung; 8.4 mg/kg IV bolus; in words
Procedure: Tissue levels of compounds 1, 2, 3 and 4 were evaluated in kidney, liver and lung six-hour after 8.4 mg/kg IV bolus administration. FIG. 13 depicts the levels as a function of time.
Compound 67, which is the expected metabolite of proteolytic intracellular degradation of compound 3, was detected in rat tissues after IV infusion, confirming the tissue-specific degradation of compound 3 (Tables 9A, B).

[2] = tested on: strain 29A2 of P. aeruginosa overexpressing MexAB-OprM efflux pump; assay: Neutropenic mice lung model of PA infection; format: in vivo; conditions: for bacterial load in infected lungs, EPI with levofloxacin: levofloxacin 30 mg/kg SQ plus EPI IP
Procedure: Neutropenia was induced by cyclophosphamide 100 mg/kg IP on days 3 and 1 prior to infection. The strain 29A2 of P. aeruginosa overexpressing MexAB-OprM efflux pump was grown overnight in Mueller-Hinton Broth (MHB). The next day overnight culture was diluted in fresh MHB and was allowed to re-grow to ˜10^8 CFU/mL (OD600˜0.3). The culture was spun down, washed twice with phosphate buffered saline (PBS) and re-suspended in PBS to ˜4×10^7 CFU/mL. 50 μl of inoculum was used for intratracheal instillation of mice, which were anesthetized with sevoflourane/oxygen. […] Four mice from each treatment group were euthanized at various times after the start of treatment. The lungs were removed aseptically, homogenized in saline, and immediately plated to determine bacterial load (CFU/ml) in infected lungs. P. aeruginosa is plotted as a function of time in FIG. 20.

Stability in human serum = format: in vitro ADME; conditions: in words
Procedure: FIG. 9 compares the stability of compounds 1 and 3 in human serum as a function of time. Both compound 1 and compound 3 were stable after 18 hours of incubation with human serum.

[3] = tested on: P. aeruginosa overexpressing (strain PAM1723) or lacking (PAM1626) efflux pumps; assay: Stability in P. aeruginosa cultures; format: in vitro ADME; conditions: 50 μg/ml, PAM1723 and PAM1626
Procedure: Overnight cultures of two different strains of P. aeruginosa overexpressing (strain PAM1723) or lacking (PAM1626) efflux pumps were incubated with compounds 1 or 3 at 50 μg/ml for various times. Compounds were extracted using 4% TCA and analysed by LC/MC/MC.

[4] = tested on: P. aeruginosa, PAM1723, overexpressing the MexAB-OprM efflux pump; assay: Levofloxacin potentiation checkerboard assay (broth microdilution); format: cell-based; conditions: for MPC8: EPI concentration necessary to increase susceptibility to levofloxacin eight-fold
Procedure: Stock solution was stored at −80° C.
The checkerboard assay was performed in microtiter plates. […] EPIs were diluted in the y axis, each row containing an equal concentration of an EPI. The result of these manipulations was that each well of the microtiter plate contains a unique combination of concentrations of the two agents. The assay was performed in MHB with a final bacterial inoculum of 5×10^5 CFU/ml (from an early-log phase culture). Microtiter plates were incubated during 20 h at 35° C. and were read using a microtiterplate reader (Molecular Devices) at 650 nm as well as visual observation using a microtiter plate-reading mirror.

[5] = tested on: P. aeruginosa strain PAM1032 overexpressing MexAB-OprM efflux pump; assay: Mouse sepsis model of PA infection (ED50 of levofloxacin); format: in vivo
Procedure: P. aeruginosa strain PAM1032 overexpressing MexAB-OprM efflux pump was grown overnight in Mueller-Hinton Broth (MHB). The next day, the overnight culture was diluted in fresh MHB and was allowed to re-grow to ˜10^8 CFU/mL (OD600˜0.3). The culture was spun down, washed twice with phosphate buffered saline (PBS) and re-suspend in PBS to ˜1.2×10^7 CFU/mL (OD=0.12). Next this culture was mixed 1:1 with 14% hog-gastric mucin in PBS to give a final inoculum of […].
The effect of the EPI at 50 mg/kg was determined according to the following experimental design: […]

Klebsiella pneumonia 73 = assay: Antibiotic MIC with fixed concentration of compound 21, Klebsiella pneumonia 73; format: cell-based
Procedure: (§1) To further characterize the clinical potential of tigecycline/EPI combinations, the microbiological activity of tigecycline in combination with compound 21 was investigated using clinical isolates of P. aeruginosa and other gram-negative bacteria. In several experiments, described below, the impact of a fixed concentration of compound 21 (2.5 μg/ml) on susceptibility to tigecycline was determined.
(§2) The impact of compound 21 on the activity of tigecycline against representative members of Enterobacteriacaea was also tested.

Citrobacter freundii 13 = assay: Antibiotic MIC with fixed concentration of compound 21, Citrobacter freundii 13; format: cell-based
Procedure: as §1, §2

[6] = tested on: laboratory strains of P. aeruginosa; assay: Tigecycline susceptibility of laboratory strains of P. aeruginosa over-expressing or lacking efflux pumps; format: cell-based
Procedure: The ability of compound 21 to increase susceptibility to tigecycline was also assessed. The tigecycline potentiating activity of compound 21 was assessed by the checkerboard assay (Antimicrobial Combinations, Antibiotics in Laboratory Medicine, ed. Victor Lorian, M.D., Fourth edition, 1996, pp 333-338, which is incorporated herein by reference in its entirety) using a broth micro-dilution method performed as recommended by the CSLI (Clinical and Laboratory Standards Institute, formerly NCCLS) guidelines (National Committee for Clinical Laboratory Standards 2003. Methods for Dilution Antimicrobial Susceptibility Tests for Bacteria That Grow Aerobically—Sixth Edition; Approved Standard. NCCLS Document M7-A6, Vol 20 No. 2). In this assay, multiple dilutions of the two drugs, compound 21 and tigecycline, were tested alone and in combination, at concentrations equal to, above and below their respective minimal inhibitory concentrations (MICs). […] The stock solution was further diluted in Mueller Hinton Broth (MHB). Stock solutions were stored at −80° C.
The checkerboard assay was performed in microtiter plates. Tigecycline was diluted in the x axis, each column containing a single concentration of tigecycline. Compound 21 was diluted in the y axis, each row containing an equal concentration of the EPI. […] The assay was performed in MHB with a final bacterial inoculum of 5×10^5 CFU/ml (from an early-log phase culture). The microtiter plates were incubated for 20 hours at 35° C. and then read using a microtiter plate reader (Molecular Devices) at 650 nm, as well as by visual observation using a microtiter plate-reading mirror.

[7] = tested on: Strain S41, a clinical isolate; assay: microbe, parasite or virus in culture; format: cell-based, P. aeruginosa; conditions: strain S41
[8] = EPI 0 μg/ml (levofloxacin alone)
[9] = azithromycin MIC with compound 21
[10] = levofloxacin MIC with compound 21 at […]
[11] = tigecycline MIC with compound 21 at […]

Row | SMILES | tissue levels at 6 hours after IV injection [1] | bacterial load in infected lungs, EPI with levofloxacin [2] | stability after 18 hours of incubation with human serum (Stability in human serum) | stability in cultures of tested bacterial strains [3] | Antibiotic (levofloxacin) MIC in the presence of EPI [4, 8] [µg/mL] | Antibiotic (levofloxacin) MIC in the presence of EPI ([4]; EPI 1.25 μg/ml) [µg/mL] | Antibiotic (levofloxacin) MIC in the presence of EPI ([4]; EPI 5 μg/ml) [µg/mL] | Antibiotic (levofloxacin) MIC in the presence of EPI ([4]; EPI 10 μg/ml) [µg/mL] | Antibiotic (levofloxacin) MIC in the presence of EPI ([4]; EPI 20 μg/ml) [µg/mL] | Antibiotic (levofloxacin) MIC in the presence of EPI ([4]; EPI 40 μg/ml) [µg/mL] | Antibiotic (levofloxacin) MIC in the presence of EPI ([4]; EPI 80 μg/ml) [µg/mL] | Antibiotic (levofloxacin) MIC in the presence of EPI ([4]; EPI […]) [µg/mL] | MPC8 [4] [µg/mL] | also measured
1 | NCCC[C@@H](N)C(=O)N[C@H](CCc1ccccc1)C(=O)Nc1cnc2ccccc2c1 [Compound 1, 2-(R),5-Diamino-pentanoic acid [3-phenyl-1-(R)-(quinolin-3-ylcarbamoyl)-propyl]-amide] | relatively high levels | significantly decreased bacterial load | stable | stable | 2 | 2 | 0.5 | 0.06 | 0.03 | 0.015 | 0.008 | 1 | 10 | growth of P. aeruginosa in infected lungs, EPI alone ([2]; EPI 100 mg/kg IP alone (0/100) versus no addition): No difference in growth; decrease of ED50 of levofloxacin ([5]; EPI at 50 mg/kg IP, survival at 24 hours): 4 fold
2 | NCCC[C@H](N)C(=O)N[C@H](CCc1ccccc1)C(=O)Nc1cnc2ccccc2c1 [Compound 3, 2-(S),5-Diamino-pentanoic acid [3-phenyl-1-(R)-(quinolin-3-ylcarbamoyl)-propyl]-amide] | very low level | dose-dependent efficacy in levofloxacin potentiation | stable | stable | 2 | 2 | 0.25 | 0.03 | 0.015 | 0.015 | 0.015 | 1 | 10 | decrease in ED50 of levofloxacin ([5]; increasing concentrations of EPI, dose-dependent): up to 4 fold
3 | NCCC[C@H](N)C(=O)N[C@H](Cc1ccc(C(F)(F)F)cc1)C(=O)Nc1cnc2ccccc2c1 [Compound 21, 2-(S),5-Diamino-pentanoic acid [1-(R)-(quinolin-3-ylcarbamoyl)-2-(4-trifluoromethyl-phenyl)-ethyl]amide] | – | – | – | – | – | – | – | – | – | – | – | – | – | Azi + EPI (MIC) (Klebsiella pneumonia 73; [9]): ≦0.125; Levo + EPI at […] (MIC) (Klebsiella pneumonia 73; [10]): 4; Tig + EPI at […] (MIC) (Klebsiella pneumonia 73; [11]): 0.125; Azi + EPI (MIC) (Citrobacter freundii 13; [9]): ≦0.125; Levo + EPI at […] (MIC) (Citrobacter freundii 13; [10]): 8; Tig + EPI at […] (MIC) (Citrobacter freundii 13; [11]): 0.125; effect on activity of tigecycline against strains expressing efflux pumps ([6]; in words): increases activity to tigecycline; concentration required to completely inhibit the efflux pumps ([6]; tigecycline checkerboard): 2.5 µg/mL; Tigecycline MIC with Compound 21 at 5 μg/ml [7]: 0.125 µg/mL; Mutation Frequency on Tigecycline at 4 μg/ml with Compound 21 at 10 μg/ml ([7]; 4× MIC): <1.5 × 10^−10; reduction of the frequency of emergence of tigecycline resistance ([7]; compound 21 at 10 μg/ml): at least three orders of magnitude
